Columns and labels:
[1] = target: Tyrosine-protein kinase ITK/TSK (Homo sapiens) (UniProt Q08881); conditions: Compound concentration 1000.0 nM
[2] = target: Dual specificity mitogen-activated protein kinase kinase 7 (Homo sapiens) (UniProt O14733); conditions: Compound concentration 1000.0 nM
[3] = target: STE20-like serine/threonine-protein kinase (Homo sapiens) (UniProt Q9H2G2); conditions: Compound concentration 1000.0 nM
[4] = target: Protein-tyrosine kinase 6 (Homo sapiens) (UniProt Q13882); conditions: Compound concentration 1000.0 nM
[5] = system: Phosphatidylinositol 4,5-bisphosphate 3-kinase catalytic subunit alpha isoform (Homo sapiens), P42336 [E545K]; conditions: Compound concentration 1000.0 nM
[6] = system: Epidermal growth factor receptor (Homo sapiens), P00533 [UNDEFINED MUTATION]; conditions: Compound concentration 1000.0 nM
[7] = target: Homeodomain-interacting protein kinase 3 (Homo sapiens) (UniProt Q9H422); conditions: Compound concentration 1000.0 nM
[8] = target: Interleukin-1 receptor-associated kinase 3 (Homo sapiens) (UniProt Q9Y616); conditions: Compound concentration 1000.0 nM
[9] = target: TRAF2 and NCK-interacting protein kinase (Homo sapiens) (UniProt Q9UKE5); conditions: Compound concentration 1000.0 nM
[10] = target: RAC-beta serine/threonine-protein kinase (Homo sapiens) (UniProt P31751); conditions: Compound concentration 1000.0 nM
[11] = system: Tyrosine-protein kinase ABL1 (Homo sapiens), P00519 [T315I]; conditions: Compound concentration 1000.0 nM
[12] = target: Calcium/calmodulin-dependent protein kinase kinase 2 (Homo sapiens) (UniProt Q96RR4); conditions: Compound concentration 1000.0 nM
[13] = target: Serine/threonine-protein kinase PLK3 (Homo sapiens) (UniProt Q9H4B4); conditions: Compound concentration 1000.0 nM
[14] = target: AP2-associated protein kinase 1 (Homo sapiens) (UniProt Q2M2I8); conditions: Compound concentration 1000.0 nM
[15] = target: Mitogen-activated protein kinase 11 (Homo sapiens) (UniProt Q15759); conditions: Compound concentration 1000.0 nM
[16] = target: Histamine H3 receptor (Homo sapiens) (UniProt Q9Y5N1); conditions: Compound concentration 10.0 uM
[17] = target: Serine/threonine-protein kinase WNK3 (Homo sapiens) (UniProt Q9BYP7); conditions: Compound concentration 1000.0 nM
[18] = target: Serine/threonine-protein kinase PLK1 (Homo sapiens) (UniProt P53350); conditions: Compound concentration 1000.0 nM
[19] = target: Serine/threonine-protein kinase pim-1 (Homo sapiens) (UniProt P11309); conditions: Compound concentration 1000.0 nM
[20] = target: Leukocyte tyrosine kinase receptor (Homo sapiens) (UniProt P29376); conditions: Compound concentration 1000.0 nM
[21] = target: Cyclin-dependent kinase 11A (Homo sapiens) (UniProt Q9UQ88); conditions: Compound concentration 1000.0 nM
[22] = target: Ephrin type-A receptor 6 (Homo sapiens) (UniProt Q9UF33); conditions: Compound concentration 1000.0 nM
[23] = target: Membrane-associated tyrosine- and threonine-specific cdc2-inhibitory kinase (Homo sapiens) (UniProt Q99640); conditions: Compound concentration 1000.0 nM
[24] = target: Substance-P receptor (Homo sapiens) (UniProt P25103); test: NK1 (h) Eurofins-Cerep binding assay; design: ligand concentration 0.05 nM; conditions: filed as agonist, Compound concentration 10.0 uM
[25] = target: Phosphatidylinositol 4-phosphate 5-kinase type-1 alpha (Homo sapiens) (UniProt Q99755); conditions: Compound concentration 1000.0 nM
[26] = target: Phosphatidylinositol 4-phosphate 3-kinase C2 domain-containing subunit beta (Homo sapiens) (UniProt O00750); conditions: Compound concentration 1000.0 nM
[27] = target: Glycogen synthase kinase-3 beta (Homo sapiens) (UniProt P49841); conditions: Compound concentration 1000.0 nM
[28] = target: Angiopoietin-1 receptor (Homo sapiens) (UniProt Q02763); conditions: Compound concentration 1000.0 nM
[29] = target: Mitogen-activated protein kinase kinase kinase 1 (Homo sapiens) (UniProt Q13233); conditions: Compound concentration 1000.0 nM
[30] = target: cGMP-dependent protein kinase 1 (Homo sapiens) (UniProt Q13976); conditions: Compound concentration 1000.0 nM
[31] = target: Serine/threonine-protein kinase STK11 (Homo sapiens) (UniProt Q15831); conditions: Compound concentration 1000.0 nM
[32] = target: B2 bradykinin receptor (Homo sapiens) (UniProt P30411); test: B2 (h) Eurofins-Cerep binding assay; design: ligand concentration 0.3 nM; conditions: filed as agonist, Compound concentration 10.0 uM
[33] = target: SNF-related serine/threonine-protein kinase (Homo sapiens) (UniProt Q9NRH2); conditions: Compound concentration 1000.0 nM
[34] = target: T1, Alpha-1B adrenergic receptor (Homo sapiens) (UniProt P35368); conditions: Compound concentration 10.0 uM
T1 sequence (whole entry): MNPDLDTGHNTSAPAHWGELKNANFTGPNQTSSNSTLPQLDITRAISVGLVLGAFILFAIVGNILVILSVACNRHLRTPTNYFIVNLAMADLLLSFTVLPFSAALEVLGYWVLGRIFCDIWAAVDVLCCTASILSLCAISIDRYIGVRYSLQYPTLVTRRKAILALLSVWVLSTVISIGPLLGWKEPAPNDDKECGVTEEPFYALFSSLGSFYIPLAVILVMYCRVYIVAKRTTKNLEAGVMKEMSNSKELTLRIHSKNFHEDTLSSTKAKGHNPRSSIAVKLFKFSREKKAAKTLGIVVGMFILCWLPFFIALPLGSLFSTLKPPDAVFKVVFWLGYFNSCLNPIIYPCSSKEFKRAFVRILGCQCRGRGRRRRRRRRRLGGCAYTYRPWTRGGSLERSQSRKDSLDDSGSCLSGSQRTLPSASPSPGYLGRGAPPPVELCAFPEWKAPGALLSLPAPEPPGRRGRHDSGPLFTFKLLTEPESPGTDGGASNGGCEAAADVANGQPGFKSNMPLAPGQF

[35] = target: 5'-AMP-activated protein kinase catalytic subunit alpha-2 (Homo sapiens) (UniProt P54646); conditions: Compound concentration 1000.0 nM
[36] = target: Serine/threonine-protein kinase DCLK2 (Homo sapiens) (UniProt Q8N568); conditions: Compound concentration 1000.0 nM
[37] = target: Serine/threonine-protein kinase PAK 6 (Homo sapiens) (UniProt Q9NQU5); conditions: Compound concentration 1000.0 nM
[38] = target: Ephrin type-A receptor 4 (Homo sapiens) (UniProt P54764); conditions: Compound concentration 1000.0 nM

Sequence of Glycogen synthase kinase-3 beta (Homo sapiens) (P49841 whole entry, looked up): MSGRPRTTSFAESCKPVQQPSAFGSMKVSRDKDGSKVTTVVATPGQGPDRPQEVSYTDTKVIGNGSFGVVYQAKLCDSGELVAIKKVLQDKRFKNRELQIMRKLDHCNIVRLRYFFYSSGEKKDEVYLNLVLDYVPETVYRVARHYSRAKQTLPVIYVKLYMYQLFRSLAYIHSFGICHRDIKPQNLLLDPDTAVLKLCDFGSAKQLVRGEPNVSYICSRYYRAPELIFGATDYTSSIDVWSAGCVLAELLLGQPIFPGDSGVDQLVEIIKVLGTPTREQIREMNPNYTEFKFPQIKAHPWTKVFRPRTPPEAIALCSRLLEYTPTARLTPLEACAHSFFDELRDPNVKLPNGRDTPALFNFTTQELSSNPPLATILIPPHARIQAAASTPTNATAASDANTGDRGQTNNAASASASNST
Sequence of Phosphatidylinositol 4,5-bisphosphate 3-kinase catalytic subunit alpha isoform (Homo sapiens), P42336 [E545K] (P42336 whole entry E545K, canonical isoform): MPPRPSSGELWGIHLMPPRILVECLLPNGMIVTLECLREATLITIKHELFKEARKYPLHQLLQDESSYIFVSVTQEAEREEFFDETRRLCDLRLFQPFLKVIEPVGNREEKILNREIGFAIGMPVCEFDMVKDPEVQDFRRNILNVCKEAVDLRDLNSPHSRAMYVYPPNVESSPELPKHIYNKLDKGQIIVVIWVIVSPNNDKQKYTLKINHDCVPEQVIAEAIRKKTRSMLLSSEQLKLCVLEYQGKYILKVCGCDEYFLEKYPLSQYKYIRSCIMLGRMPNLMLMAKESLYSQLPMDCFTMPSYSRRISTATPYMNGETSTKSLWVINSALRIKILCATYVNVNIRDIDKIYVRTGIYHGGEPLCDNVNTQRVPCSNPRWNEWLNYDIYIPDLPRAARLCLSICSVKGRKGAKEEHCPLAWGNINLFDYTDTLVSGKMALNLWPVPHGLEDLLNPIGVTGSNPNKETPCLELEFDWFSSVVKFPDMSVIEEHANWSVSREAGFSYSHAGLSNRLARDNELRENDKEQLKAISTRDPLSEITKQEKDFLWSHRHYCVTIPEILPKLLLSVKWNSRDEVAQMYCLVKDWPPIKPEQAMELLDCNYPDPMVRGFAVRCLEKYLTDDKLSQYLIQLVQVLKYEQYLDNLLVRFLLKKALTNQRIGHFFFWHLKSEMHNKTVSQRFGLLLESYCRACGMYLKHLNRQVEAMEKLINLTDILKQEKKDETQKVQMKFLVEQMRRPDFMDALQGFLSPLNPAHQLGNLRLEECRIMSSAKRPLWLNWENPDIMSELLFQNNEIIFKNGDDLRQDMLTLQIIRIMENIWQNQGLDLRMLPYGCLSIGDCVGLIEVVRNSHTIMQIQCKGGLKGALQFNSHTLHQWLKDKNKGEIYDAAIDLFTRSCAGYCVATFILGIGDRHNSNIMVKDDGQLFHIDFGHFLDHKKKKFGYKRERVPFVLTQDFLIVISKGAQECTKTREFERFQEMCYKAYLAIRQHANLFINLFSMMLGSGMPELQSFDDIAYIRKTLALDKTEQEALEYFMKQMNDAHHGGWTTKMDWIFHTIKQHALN
Sequence of Angiopoietin-1 receptor (Homo sapiens) (Q02763 whole entry): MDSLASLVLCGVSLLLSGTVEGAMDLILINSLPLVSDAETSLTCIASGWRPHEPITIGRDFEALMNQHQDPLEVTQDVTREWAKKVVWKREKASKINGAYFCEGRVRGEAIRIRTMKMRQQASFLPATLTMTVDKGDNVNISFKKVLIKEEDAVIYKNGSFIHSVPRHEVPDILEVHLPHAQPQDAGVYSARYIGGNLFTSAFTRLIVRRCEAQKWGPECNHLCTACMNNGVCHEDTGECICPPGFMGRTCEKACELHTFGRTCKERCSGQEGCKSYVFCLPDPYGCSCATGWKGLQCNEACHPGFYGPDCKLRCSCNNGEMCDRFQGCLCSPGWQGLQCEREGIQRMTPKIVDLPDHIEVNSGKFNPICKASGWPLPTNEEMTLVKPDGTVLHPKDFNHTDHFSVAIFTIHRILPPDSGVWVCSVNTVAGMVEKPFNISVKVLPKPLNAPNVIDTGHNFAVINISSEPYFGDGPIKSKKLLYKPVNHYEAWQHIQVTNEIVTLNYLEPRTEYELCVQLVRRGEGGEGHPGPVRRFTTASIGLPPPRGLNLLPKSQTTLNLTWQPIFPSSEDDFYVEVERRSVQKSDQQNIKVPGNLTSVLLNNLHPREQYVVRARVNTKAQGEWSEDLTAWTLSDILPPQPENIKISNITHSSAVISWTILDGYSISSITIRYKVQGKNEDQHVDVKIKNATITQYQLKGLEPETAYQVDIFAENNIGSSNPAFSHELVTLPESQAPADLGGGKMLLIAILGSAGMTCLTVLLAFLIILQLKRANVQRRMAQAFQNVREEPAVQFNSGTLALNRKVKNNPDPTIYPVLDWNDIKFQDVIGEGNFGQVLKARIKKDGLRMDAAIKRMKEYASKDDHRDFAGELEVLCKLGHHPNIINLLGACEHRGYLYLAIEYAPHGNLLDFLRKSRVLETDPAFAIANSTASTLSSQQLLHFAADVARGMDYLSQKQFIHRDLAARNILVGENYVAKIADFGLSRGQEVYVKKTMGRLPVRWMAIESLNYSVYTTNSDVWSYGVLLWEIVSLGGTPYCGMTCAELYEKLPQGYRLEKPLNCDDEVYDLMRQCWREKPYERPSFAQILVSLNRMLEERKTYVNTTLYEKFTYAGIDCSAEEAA
Sequence of RAC-beta serine/threonine-protein kinase (Homo sapiens) (P31751 whole entry): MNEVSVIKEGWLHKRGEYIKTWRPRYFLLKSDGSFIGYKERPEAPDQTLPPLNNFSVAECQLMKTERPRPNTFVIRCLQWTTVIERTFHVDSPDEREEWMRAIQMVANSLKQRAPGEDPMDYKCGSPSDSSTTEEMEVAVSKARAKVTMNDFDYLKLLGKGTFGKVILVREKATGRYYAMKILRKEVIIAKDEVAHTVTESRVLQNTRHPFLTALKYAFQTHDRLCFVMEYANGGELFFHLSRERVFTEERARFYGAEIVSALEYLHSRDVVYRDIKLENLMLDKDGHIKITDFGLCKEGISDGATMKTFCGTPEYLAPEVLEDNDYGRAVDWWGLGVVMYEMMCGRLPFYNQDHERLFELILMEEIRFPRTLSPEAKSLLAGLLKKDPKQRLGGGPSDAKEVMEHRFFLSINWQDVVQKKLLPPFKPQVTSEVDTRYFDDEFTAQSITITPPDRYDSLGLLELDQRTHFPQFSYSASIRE
Sequence of Substance-P receptor (Homo sapiens) (P25103 whole entry): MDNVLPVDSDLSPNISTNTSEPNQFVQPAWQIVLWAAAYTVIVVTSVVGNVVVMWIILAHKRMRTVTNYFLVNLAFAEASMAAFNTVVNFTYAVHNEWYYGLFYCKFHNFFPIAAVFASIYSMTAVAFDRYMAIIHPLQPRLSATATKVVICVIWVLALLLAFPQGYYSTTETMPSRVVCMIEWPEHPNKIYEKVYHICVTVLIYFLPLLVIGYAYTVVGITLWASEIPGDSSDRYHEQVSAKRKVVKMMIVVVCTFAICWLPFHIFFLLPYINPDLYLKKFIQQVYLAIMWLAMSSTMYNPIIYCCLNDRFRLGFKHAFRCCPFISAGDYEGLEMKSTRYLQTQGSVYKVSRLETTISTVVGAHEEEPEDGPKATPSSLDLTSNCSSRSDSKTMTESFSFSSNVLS
Sequence of Tyrosine-protein kinase ITK/TSK (Homo sapiens) (Q08881 whole entry): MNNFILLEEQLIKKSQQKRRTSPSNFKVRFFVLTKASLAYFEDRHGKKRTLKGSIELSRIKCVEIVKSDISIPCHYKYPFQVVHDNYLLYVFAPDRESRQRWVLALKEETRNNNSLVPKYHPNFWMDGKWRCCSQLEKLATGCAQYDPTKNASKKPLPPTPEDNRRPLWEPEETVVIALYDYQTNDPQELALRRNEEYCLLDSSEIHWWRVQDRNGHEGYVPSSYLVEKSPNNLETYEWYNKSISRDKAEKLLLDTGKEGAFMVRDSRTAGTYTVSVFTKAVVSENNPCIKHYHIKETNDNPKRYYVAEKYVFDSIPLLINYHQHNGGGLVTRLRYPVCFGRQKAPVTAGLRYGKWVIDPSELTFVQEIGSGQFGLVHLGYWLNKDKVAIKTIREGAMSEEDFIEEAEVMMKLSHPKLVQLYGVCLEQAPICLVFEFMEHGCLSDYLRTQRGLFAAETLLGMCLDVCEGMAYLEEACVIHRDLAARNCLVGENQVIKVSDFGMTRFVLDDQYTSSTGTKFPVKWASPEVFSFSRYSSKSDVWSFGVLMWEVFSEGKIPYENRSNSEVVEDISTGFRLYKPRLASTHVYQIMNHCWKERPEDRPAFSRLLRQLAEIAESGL
Sequence of Dual specificity mitogen-activated protein kinase kinase 7 (Homo sapiens) (O14733 whole entry): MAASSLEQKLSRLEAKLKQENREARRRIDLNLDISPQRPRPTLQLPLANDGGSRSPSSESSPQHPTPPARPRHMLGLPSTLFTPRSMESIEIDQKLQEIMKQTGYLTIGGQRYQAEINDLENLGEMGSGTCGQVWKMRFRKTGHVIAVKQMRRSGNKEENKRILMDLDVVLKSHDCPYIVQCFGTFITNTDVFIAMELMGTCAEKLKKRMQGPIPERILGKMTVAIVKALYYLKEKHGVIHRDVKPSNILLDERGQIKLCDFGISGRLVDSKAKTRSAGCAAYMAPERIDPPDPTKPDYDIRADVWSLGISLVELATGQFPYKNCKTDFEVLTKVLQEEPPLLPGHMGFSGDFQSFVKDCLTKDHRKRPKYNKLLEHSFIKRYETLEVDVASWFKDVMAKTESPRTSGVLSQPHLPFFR
Sequence of Mitogen-activated protein kinase 11 (Homo sapiens) (Q15759 whole entry): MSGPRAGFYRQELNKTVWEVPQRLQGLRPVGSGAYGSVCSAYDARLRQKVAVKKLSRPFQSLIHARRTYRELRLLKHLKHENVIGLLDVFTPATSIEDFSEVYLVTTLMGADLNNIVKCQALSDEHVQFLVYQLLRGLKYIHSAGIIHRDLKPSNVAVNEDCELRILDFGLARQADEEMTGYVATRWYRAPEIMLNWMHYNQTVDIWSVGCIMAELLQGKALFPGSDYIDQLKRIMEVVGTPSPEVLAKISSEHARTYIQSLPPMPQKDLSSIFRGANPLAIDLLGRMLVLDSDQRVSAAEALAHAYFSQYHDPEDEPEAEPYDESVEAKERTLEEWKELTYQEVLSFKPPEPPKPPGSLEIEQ

Compound | residual activity [1] | residual activity [2] | residual activity [3] | residual activity [4] | residual activity [5] | residual activity [6] | residual activity [7] | residual activity [8] | residual activity [9] | residual activity [10] | residual activity [11] | residual activity [12] | residual activity [13] | residual activity [14] | residual activity [15] | inhibition [16] | residual activity [17] | residual activity [18] | residual activity [19] | residual activity [20] | other results
O=C(NS(=O)(=O)c1ccc(NCC2CCOCC2)c([N+](=O)[O-])c1)c1ccc(N2CCN(Cc3ccc(C(F)(F)F)cc3-c3ccc(Cl)cc3)CC2)cc1Oc1cnc2[nH]ccc2c1 [A-1210227] | 100% | 100% | 100% | 100% | 100% | 88% | 100% | 100% | 100% | 100% | 82% | 99% | 100% | 98% | 78% | -1.15% | 100% | 90% | 92% | 100% | residual activity [21]: 100%; residual activity [22]: 100%; residual activity [23]: 90%; % Inhibition of Control Specific Binding (Mean n=2) [24]: -284%; residual activity [25]: 93%; residual activity [26]: 83%; residual activity [27]: 100%; residual activity [28]: 80%; residual activity [29]: 100%; residual activity [30]: 96%; residual activity [31]: 100%; % Inhibition of Control Specific Binding (Mean n=2) [32]: -2.1%; residual activity [33]: 100%; inhibition [34]: 12.3%; residual activity [35]: 100%; residual activity [36]: 100%; residual activity [37]: 73%; residual activity [38]: 100%
CO[C@H]1CC[C@H](CNc2ccc(S(=O)(=O)NC(=O)c3ccc(N4CCN(CC5=C(c6ccc(Cl)cc6)CC(C)(C)CC5)CC4)cc3Oc3cnc4[nH]ccc4c3)cc2[N+](=O)[O-])CC1 [A-1211212] | 87% | 100% | 67% | 100% | 96% | 65% | 100% | 100% | 100% | 80% | 100% | 81% | 100% | 78% | 60% | 4.97% | 100% | 83% | 72% | 100% | residual activity [21]: 95%; residual activity [22]: 99%; residual activity [23]: 100%; % Inhibition of Control Specific Binding (Mean n=2) [24]: -60.6%; residual activity [25]: 86%; residual activity [26]: 92%; residual activity [27]: 100%; residual activity [28]: 69%; residual activity [29]: 100%; residual activity [30]: 92%; residual activity [31]: 59%; % Inhibition of Control Specific Binding (Mean n=2) [32]: -15.7%; residual activity [33]: 100%; inhibition [34]: 1.2%; residual activity [35]: 93%; residual activity [36]: 100%; residual activity [37]: 75%; residual activity [38]: 88%
